This is an account of results in PMC7214178, “Ligand‐specific recycling profiles determine distinct potential for chronic analgesic tolerance of delta‐opioid receptor (DOPr) agonists” (Journal of Cellular and Molecular Medicine, 2020).

Series [1] relates to rat model of streptozotocin (STZ)‐induced diabetic neuropathy. Put plainly: Acute anti‐allodynic dose‐response after single i.t. injection (von Frey). The format is in vivo. The note with it: for Analgesia 60 min after injection vs vehicle: i.t. doses that reached maximal effect, one‐way ANOVA vs control, n = 3‐4; for Area under the curves, pEC50 ± SEM (M) / Peak analgesic response, pEC50 ± SEM (M): i.t. in 30 μL; for Area under the curves, pEC50 ± SEM (M) / Area under the curves, Relative EMAX ± SEM: analgesic response integrated over time (AUC); for Area under the curves, pEC50 ± SEM (M) / Peak analgesic response, pEC50 ± SEM (M) / Peak analgesic response, Relative EMAX ± SEM: four‐parameter logistic fit; for Area under the curves, pEC50 ± SEM (M) / Peak analgesic response, pEC50 ± SEM (M) / Area under the curves, Relative EMAX ± SEM / Peak analgesic response, Relative EMAX ± SEM: 3‐4 rats/dose; for Peak analgesic response, pEC50 ± SEM (M) / Peak analgesic response, Relative EMAX ± SEM: mechanical withdrawal threshold 30 min after injection; for Area under the curves, Relative EMAX ± SEM / Peak analgesic response, Relative EMAX ± SEM: normalized to maximal asymptote of agonist with largest effect. The text has this:
Adult male Sprague Dawley (SD) rats, weighing 235‐250 g, were purchased from Charles River laboratories and housed in a controlled environment on a 12‐hour light/dark cycle with free access to food and water. All experimental methods and animal care procedures were approved by the Animal Care Committee of University of Montreal (CDEA protocol 15‐013), in accordance with the guiding principles as enunciated by the Canadian Council on Animal Care.
(§1) Type I diabetes was induced by systemic injection of streptozotocin (STZ, 65 mg/kg, i.p.) according to a standardized methodology, which allows development of persistent diabetic neuropathy after the first week of treatment. ^20 At the end of the first week, blood was extracted from the tail vein and blood glucose levels were measured with a glucometer (Accu‐Chek Aviva; Roche Diagnostics) prior to evaluation of analgesia on the second week.
(§2) Mechanical allodynia is the consequence of maladaptive neuroplasticity following nerve damage. ^24 In a model of diabetic neuropathy as the one used in this study, hyperglycaemia contributes to generate reactive oxygen species which induce microglia activation and inflammatory mediators. ^25 , ^26 These mediators attenuate the activity of Gly/GABA interneurons in superficial layers ^24 , ^27 , ^28 , ^29 and disrupt the inhibitory control that prevents innocuous touch stimuli from producing pain which leads to allodynia. ^30 DOPrs are expressed in these light‐touch mechanoreceptors ^31 and up‐regulated during sensitization, ^32 , ^33 making DOPr agonists elective for relieving this type of pain. Allodynia was evaluated using Von Frey filaments as previously described. ^19 Briefly, rats were accustomed for 15 min on a metal mesh floor under an inverted plastic box (20 × 10 × 10 cm) in a quiet room dedicated to this behavioural test. After habituation, the plantar surface of the right and left hind legs was alternately touched (6‐8 seconds) with von Frey filaments of progressively wider diameter in order to find the threshold of pressure required to produce withdrawal. The mechanical threshold response was obtained by consigning the pressure in grams that would result in withdrawal of the paw in 50% of 10 trials. A normal rat responds to tactile pressures of 12‐15 g whereas neuropathic rats respond to pressures of 4‐6 g. ^24
In a first series of experiments, dose‐response curves to SNC‐80, SB235863, deltorphin II and TIPP were constructed following intrathecal (i.t.) injection of increasing doses until no increment in maximal anti‐allodynic response was observed. […] Each group of rats received only one ligand and a single dose per day. Saturation of the analgesic response on mechanical allodynia required assessing 5‐6 doses per ligand administered over a period of 5‐6 days, using 3‐4 animals/dose. Injections were made at mid‐lumbar level with a needle 23G × 1/2 under light anaesthesia using 4% isoflurane inhalation in a 1:1 mixture of oxygen and air. The animals were allowed to recover for 15 minutes before mechanical thresholds were determined. Threshold measures were repeated every 15 minutes until the analgesic response disappeared. Peak analgesic responses (30 minutes) or responses integrated over time (area under the curve: AUC) were consigned and plotted as a function of treatment dose. Curves were fitted with the four‐parameter logistic equation in GraphPad 7 to yield ED80 and ED50 values that were then used to treat rats for assessment of chronic tolerance. For each drug, the stock solution was prepared as follows: deltorphin II was dissolved in sterile artificial cerebrospinal fluid (CSF); TIPP and SB235863 stocks were dissolved in sterile water and SNC‐80 in DMSO. Each stock solution was diluted in CSF at required concentrations and injected i.t. in a final volume of 30 μL. Control animals were injected with 30 μL of CSF. At the end of behavioural experiments, rats were anaesthetized by isoflurane and killed by decapitation.

For series [2] the test system is unchanged. Put plainly: Chronic (homologous) analgesic tolerance over six daily i.t. injections at ED80, with or without ECE2 inhibitor 6634449. Format: in vivo. The note with it: for Anti‐allodynic response over 6‐day treatment: six consecutive i.t. injections at ED80, 24‐hour intervals, daily AUC, seven rats/group. The protocol: as §1, §2
(§3) To evaluate homologous tolerance, each agonist was injected i.t. once daily for six consecutive days, at ED80 derived from dose‐response curves (deltorphin‐IIED80: 0.30 nmol/30 μL; TIPPED80: 0.40 nmol/30 μL; SB235863ED80: 1.7 nmol/30 μL and SNC‐80ED80: 0.55 nmol/30 μL). Immediately after drug administration, mechanical allodynia was measured every 15 minutes until the analgesic response disappeared. […] Prior to starting any pharmacological treatment, the presence of allodynia was confirmed. Treatments and measures were carried out randomly by two different experimenters to ensure blinding to treatment for the person assessing allodynia. In a series of experiments, an inhibitor of endothelin‐converting enzyme 2 (ECE2), 6634449, was administered by i.t injection (3 nmol/30 μL) 20 minutes prior to administration of DOPr ligands from 2 to 7 days. The vehicle (4% DMSO diluted in CSF sterile) was given as control. The dose of 6634449 used in this study was based on results previously published. ^25
(§4) Figure 1 Experimental design. One week after STZ administration, repeated treatments with DOPr agonists were started. Before starting chronic treatment with ED80 of deltorphin II, TIPP, SB235863 or SNC‐80, animals were tested to establish the baseline allodynia. Immediately after, they were injected with deltorphin II at a dose corresponding to ED50, which was repeated at the end of treatment. Allodynia measures were taken every 15 min after each injection until analgesic effects disappeared. Chronic tolerance was evaluated by comparing analgesic response to successive i.t. injections of each agonist between days 2 and 6. Difference in analgesic response to deltorphin II ED50 in days 1 and 8 allowed to establish tolerance induced by the different agonists to this common probe

Series [3] shares this test system. Put plainly: Heterologous tolerance to a common probe (deltorphin II ED50) before and after 6‐day treatment, with or without 6634449. The format is in vivo. The note with it: for Heterologous tolerance (response to deltorphin II ED50) with 6634449 co‐administration: 6634449 or vehicle i.t. 20 min before each of six agonist injections at ED80, five rats/group; for Tolerance to common probe deltorphin II (ED50) after 6‐day treatment: probe i.t. one day before and one day after six i.t. injections at ED80, 7 rats/group. The protocol:
as §1, §2, §3, §4

For series [4] the following is noted: peptidic ligands; cited from earlier work.
Series [5] has as its system endothelin‐converting enzyme 2 (ECE2). The note with it: endosomal protease that functions at acidic pH; cited from earlier work. The text has this: Indeed, deltorphin II is a naturally occurring opioid peptide ^32 and TIPP is an opioid peptide analogue. ^33 On the other hand, SNC‐80 ^34 and SB235863 ^35 are synthetic, non‐peptide ligands.
The mark [6] stands for this setting: i.t., anti‐allodynic effect, STZ rats.

`CCC(C)COC(=O)c1[nH]c2c(c1C)CC1C3Cc4ccc(OC)c5c4C1(CCN3C)C2O5.Cl` (stereo not drawn) [SB235863, [8R‐(4bS*,8aα,8aβ,12bβ)]7,10‐dimethyl‐1‐methoxy‐11‐(2‐ethylpropyl)oxycarbonyl 5,6,7,8,12,12b‐hexahydro‐(9H)‐4,8‐methanobenzofuro[3,2‐e]pyrrolo[2,3‐g]isoquinoline hydrochloride]: the “Analgesia 60 min after injection vs vehicle” value (from here on “Analgesia 60 min … vs vehicle”) in series [1] was “still present”. Moreover, in series [1] (STZ rats), the “Area under the curves, pEC50 ± SEM (M)” value turned out to be 4.44 ± 0.03 M and the “Peak analgesic response, pEC50 ± SEM (M)” value is 4.50 ± 0.05 M. In series [1] (i.t., STZ rats), the “Area under the curves, Relative EMAX ± SEM” value (from here on “Area … Relative EMAX ± SEM”) came to 100.6 ± 5.1 and the “Peak analgesic response, Relative EMAX ± SEM” value was 84.4 ± 8.8. Further, the “ED80 derived from dose‐response curves” value in series [1] (setting [6]) is listed as 1.7 nmol/30 μL. In addition, the “Anti‐allodynic response over 6‐day treatment” value in series [2] was “practically abolished”. Also, in series [3], the “Heterologous tolerance (response to deltorphin II ED50) with 6634449 co‐administration” value (shortened to “Heterologous tolerance”) is listed as “remained unchanged” and the “Tolerance to common probe deltorphin II (ED50) after 6‐day treatment” value (“Tolerance to common probe deltorphin II” below) is “induced cross‐tolerance”.
Consider `C=CCN1C[C@H](C)N([C@H](c2ccc(C(=O)N(CC)CC)cc2)c2cccc(OC)c2)C[C@H]1C` [SNC‐80, (+)‐4‐[(αR)‐α‐((2S,5R)‐4‐allyl‐2,5‐dimethyl‐1‐piperazinyl)‐3‐methoxybenzyl]‐N,N‐diethylbenzamide], for which the “Analgesia 60 min … vs vehicle” value in series [1] is given as “no longer significantly different from vehicle”. Besides, in series [1] (STZ rats), the “Area under the curves, pEC50 ± SEM (M)” value came to 4.95 ± 0.18 M and the “Peak analgesic response, pEC50 ± SEM (M)” value stood at 5.15 ± 0.06 M. Besides, in series [1] (i.t., STZ rats), the “Area … Relative EMAX ± SEM” value was 87.9 ± 22.1 and the “Peak analgesic response, Relative EMAX ± SEM” value was determined as 100 ± 7.8. Also, in series [1] (setting [6]), the “ED80 derived from dose‐response curves” value was determined as 0.55 nmol/30 μL. The “Anti‐allodynic response over 6‐day treatment” value in series [2] is listed as “gradually decreased”. Moreover, in series [3], the “Heterologous tolerance” value is recorded as “remained unchanged” and the “Tolerance to common probe deltorphin II” value is reported as “induced cross‐tolerance”.
Regarding deltorphin II, in series [1], the “Analgesia 60 min … vs vehicle” value is reported as “no longer significantly different from vehicle”. Further, in series [1] (STZ rats), the “Area under the curves, pEC50 ± SEM (M)” value is 5.09 ± 0.05 M and the “Peak analgesic response, pEC50 ± SEM (M)” value is listed as 5.22 ± 0.86 M. Further, in series [1] (i.t., STZ rats), the “Area … Relative EMAX ± SEM” value was 80.5 ± 8.0 and the “Peak analgesic response, Relative EMAX ± SEM” value is on record as 91.0 ± 9.0. Moreover, in series [1] (setting [6]), the “ED50 (challenge dose)” value worked out at 0.23 nmol/30 μL and the “ED80 derived from dose‐response curves” value was found to be 0.30 nmol/30 μL. Moreover, the “Analgesic t 1/2 (95% CI), rats pre‐treated with ECE2 inhibitor 6634449” value in series [2] (6634449 3 nmol/30 μL (0.1 mmol/L) i.t. 20 min before each daily i.t. agonist injection at ED80, five rats/group) is “ill‐defined”. Further, in series [2] (6634449 0.1 mmol/L i.t. 20 min before each agonist injection at ED80, five rats/group), the “Tolerance / analgesia with 6634449 pre‐treatment compared with vehicle controls” value is recorded as “significantly shorter”. Further, the “Day by which analgesic effects were reduced in animals exposed to 6634449” value in series [2] (6634449 i.t. 20 min before each daily agonist injection at ED80) was found to be 4 days. Also, in series [2], the “Anti‐allodynic response over 6‐day treatment” value was “maintained its analgesic response”. Also, in series [2] (vehicle i.t. 20 min before each daily i.t. agonist injection at ED80, five rats/group), the “Analgesic t 1/2 (95% CI), rats pre‐treated with vehicle” value is given as “no measurable decay t 1/2”. In addition, the “Blood‐brain barrier penetration” value in series [4] is on record as “poor blood‐brain barrier penetration”. The “Substrate of ECE2” value in series [5] is listed as “one of the ECE2 substrates”. In series [3], the “Heterologous tolerance” value is “reduced analgesic effect” and the “Tolerance to common probe deltorphin II” value is listed as “without effect”.
